ChEMBL document CHEMBL4619734, “Molecule Property Analyses of Active Compounds for Mycobacterium tuberculosis” (J Med Chem, 2020)
In brackets after ≈: the same amount, converted by molar mass.

Experiments:
Format in all cases: functional
[1] = tested on: Mycobacterium tuberculosis; assay: Antitubercular activity against Mycobacterium tuberculosis harboring mmpL3
[2] = tested on: Mycobacterium tuberculosis; assay: Antimycobacterial activity against multi drug-resistant Mycobacterium tuberculosis H37Rv
[3] = tested on: Mycobacterium tuberculosis; assay: Antimycobacterial activity against multi drug-resistant Mycobacterium tuberculosis
[4] = tested on: Mycobacterium tuberculosis; assay: Antimycobacterial activity against multi drug-resistant Mycobacterium tuberculosis expressing WecA
[5] = tested on: Mycobacterium tuberculosis; assay: Antimycobacterial activity against Mycobacterium tuberculosis drug resistant clinical isolates

Cc1c(CN2CCN(c3ccc(C(F)(F)F)cc3)CC2)cc(-c2ccccc2)n1NC(=O)c1ccncc1
MIC [1]: 0.025 to 0.12 µg/mL (≈ 0.0481 to 0.231 µM)

Cc1c(CN2CCN(C)CC2)cc(-c2ccc(Cl)cc2)n1-c1ccc(Cl)cc1
MIC [1]: 0.7 to 6.2 µg/mL (≈ 1.69 to 15 µM)

Cc1cc2nc(CCc3cc(Cl)cc(Cl)c3)[nH]c2cc1C
MIC90 [2]: 5 µM (≈ 1.6 µg/mL)

CC/N=c1\cc2n(-c3ccc(C(F)(F)F)cc3)c3ccccc3nc-2cc1Nc1ccc(C(F)(F)F)cc1
MIC [3]: 0.25 µg/mL (≈ 0.475 µM)

CCN(CC)C/N=c1\cc2n(-c3ccc(Cl)c(Cl)c3)c3ccccc3nc-2cc1Nc1ccc(Cl)c(Cl)c1
MIC [3]: 0.12 µg/mL (≈ 0.205 µM)

CCCCc1ccc(NC(=O)C2=CCN(C)C(C(O[C@@H]3O[C@H](CN)[C@@H](O)[C@H]3O)[C@H]3OC(n4ccc(=O)[nH]c4=O)[C@H](O)[C@@H]3O)C(=O)N2C)cc1 (stereo partly specified)
MIC [4]: 6.25 µg/mL (≈ 9.07 µM)

Cc1c(CN2CCSCC2)cc(-c2ccc(F)cc2)n1-c1ccccc1
MIC [1]: 0.5 µg/mL (≈ 1.36 µM)

CC(C)/N=c1\cc2n(-c3ccc(Cl)cc3)c3ccccc3nc-2cc1Nc1ccc(Cl)cc1 [CLOFAZIMINE]
MIC [3]: 1 µg/mL (≈ 2.11 µM)

C[C@]1(COc2ccc(N3CCC(Oc4ccc(OC(F)(F)F)cc4)CC3)cc2)Cn2cc([N+](=O)[O-])nc2O1 [DELAMANID]
MIC [5]: 0.01 µg/mL (≈ 0.0187 µM)

O=[N+]([O-])c1cn2c(n1)OC[C@@H](OCc1ccc(OC(F)(F)F)cc1)C2 [PRETOMANID]
MIC90 [5]: 0.531 µg/mL (≈ 1.48 µM)

CC(C)=CCC/C(C)=C/CNCCNC1C2CC3CC(C2)CC1C3 (stereo unspecified) [SQ109]
MIC [1]: 0.16 to 0.64 µg/mL (≈ 0.484 to 1.94 µM)
